Data published in patent US20250034139A1, “AMINE COMPOUNDS HAVING ANTI-INFLAMMATORY, ANTIFUNGAL, ANTIPARASITIC, AND ANTICANCER ACTIVITY” (PHARMA CINQ, LLC, priority 2013, published 2025).
Converted amounts (≈) assume the structure as drawn. One block for each compound: values may come before it.

Tests used:
[1] = test system: Cryptococcus neoformans (serotype D); test: Example K: Cryptococcus neoformans (serotype D) growth inhibition; type: cell-based; settings: Cryptococcus deneoformans, OD of 48 hour reading, 37° C., tested 4 to 60 μM, XLfit
Experimental: Cryptococcus neoformans (serotype D) were plated in 96 well plates with 144 μl/well of 8×10e5 CFU/ml in YM growth medium. Diluted compounds were then added to each well with concentration ranged from 4 to 60 μM as final concentration in duplicates. The plates were inoculated at 37° C. for total of 48 hours. Two readings of OD at 600 nm were measured after 30 and 48 hour treatments.
• 1. Pick a single colony of Cryptococcus from the YM agar plate using the inoculum loop and inoculate into a 125 ml flask containing 25 ml of YM growth medium. • 2. Incubate at 37° C. with shaking at 220 rpm for 24 hours with loosen lid to allow air in and facilitates growth. • 3. Examine an aliquot of the culture under a microscope for yeast cell morphology and lack of bacterial contamination. • 4. Dilute the overnight culture with YM medium at 1:100 dilution and count the number of cells as 1×10^6 cfu/ml. • 5. Make a final concentration of cells suspension at 8×10^5 cfu/ml in YM medium. • 6. Plate 144 μl/well of 8×10^5 cfu/ml cell suspension on 96-well plates. Part-II: Cryptococcus Growth Inhibition Testing with Compounds • 1. From 10 mM DMSO stock solutions, make serial dilutions of compounds to 0.1, 0.2, 0.3, 0.5, 1.0 and 1.5 mM solution. • 2. Add 6 ul each of diluted compound solutions per well in duplicates. The final concentrations were 0, 4, 8, 12, 20, 40 and 60 micromolar. • 3. Incubated all plates at 37° C. overnight (30 hours) with 150 rpm shaking. • 4. Read absorbance at OD600 for each plate. • 5. Leave plates in 37° C. incubator for another day and read absorbance at OD600 again at 48 hours to ensure the inhibitory effect of the compounds. • 6. Calculated the % inhibition and IC50 of each compound against untreated cells.

[2] = test system: Trichophyton rubrum; test: Example J: Trichophyton rubrum growth inhibition, scoring by eye; type: cell-based; settings: Trichophyton rubrum, 144 h; 6 days at 30° C., tested 6 to 40 μM; read-out: MIC, μM (maximum inhibition concentration, scoring by eye)
Experimental: Trichophyton grown on two agar plates were collected by scraping into 10 ml saline and filtered through 8 μm filters. […] This experiment included some active compounds from previous experiment and added several untested compounds. […] Following table listed the maximum inhibition concentration (MIC) based on scoring by eye. Scrape frozen Trichophyton culture from ATCC vial and suspended in 100 μl PDB, and then plate on a PDA plate. Incubate plate at 30 C for 4 days. The plate was covered almost full. […] Take OD of collected solution at 520 nm and 600 nm: […] Part-II: […] Add 6 μl each of diluted compound solutions per well in triplicates. […] Wrap the plates with […] incubate all plates at 30° C. for 6 days. • Take picture of the plates on KODAK imager with 17 captures of 1.5 sec/capture for total of 25.5 second exposure.

[3] = test system: Hep3B hepatocellular carcinoma cell line; settings: for Tumor Weight (g) Mean ± SEM: Hep3B in liver of nude mice, day 35, oral daily, sorafenib 30 mg/kg/day alone, 20 mg/kg/day in combination, AC 180, AK and AB 360 μmol/kg/day; for Body Weight (g) Mean ± SEM Initial: in vivo; for Complete Regressions: number of mice with no viable tumor at necropsy, day 35, doses as Table 35
Description: Hepatocellular carcinoma (HCC) is one of the most common and lethal cancers worldwide, generally developing as a consequence of chronic infection with hepatitis B or C viruses. […] The Hep3B hepatocellular carcinoma cell line is human in origin, contains genetic traces of hepatitis B virus, and can be injected into the livers of athymic immunocompromised mice as a model of primary HCC. […] The test compounds were all administered orally.
The test compounds of the invention were suspended in 1% hydroxypropylmethylcellulose (HPMC) using a sonicator equipped with a microtip to minimize particle size and maximize uniformity of the suspension. Sorafenib was dissolved in a 1:1 mixture of Cremophor EL and ethanol by heating to 60° C. for 1 minute and then sonicating for 10 minutes to fully suspend. Female nude mice (Hsd:athymic nude-Foxn1^nu) weighing approximately 25 g were anesthetized with ketamine/xylazine, laid on their backs, and a 1-cm transverse incision made through the skin and peritoneum of the left upper abdomen. The mediant lobe of the liver was exposed by applying gentle pressure on the abdomen. 1.5-2×10^6 Hep3B cells in a 20 μL volume of matrigel:EMEM serum free (1:1) were slowly implanted by subserosal injection into the liver using a 27-gauge needle on a Hamilton syringe. The liver was allowed to slip back into place, and the peritoneum was closed with sutures and wound clips.
Mice were divided into 8 groups of mice each following injection of cells; the vehicle/vehicle group comprised 12 mice and the other groups comprised 8 or 9. Mice began receiving oral test drug treatments 48 hr post cell injection.
The test compounds, sorafenib, and vehicles were administered by oral gavage. Sorafenib or its cremophor-containing vehicle were given in the morning and compounds of the invention or their HPMC vehicle was administered in the afternoon each day; all animals received two gavage treatments of drugs or appropriate vehicles daily.

[4] = test system: THP-1 cells; test: Example D: LPS-triggered THP-1 cell death assay, acute/5-hour and chronic/48-hour; type: cell-based, Human; settings: 10 ng/ml LPS, 0.1 μM test compound, 48 hours
Experimental: Compounds of the invention were tested at 0.1 μM versus AC in the LPS-triggered THP-1 cell death assay. Both acute/5-hour and chronic/48-hour phases of cell death were assessed. Compounds were screened in batches with DMSO as the negative control and AC as the high activity control.

[5] = test system: Candida albicans strain 3153; test: Example H: Candida albicans growth inhibition (OD 600 nm); type: cell-based; settings: for MIC: Candida albicans, 3153, 24 hrs at 30° C., YPD, XLfit, read-out: MIC (uM) (99% of inhibition of fungal growth); for IC50: Candida albicans, 3153, read-out: IC50 (uM) (50% inhibition of fungal growth), 24 hrs at 30° C., YPD, XLfit
Outline: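 Growth inhibition computed as % versus DMSO control from OD600 after ~24 h at 30° C. Inoculum: washed overnight YPD culture of strain 3153 at 3.5×10^4 CFU/ml in YPD; final compound concentrations 0, 5, 10, 16, 22, 30, 40 μM, duplicate wells.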

[6] = test system: PC-3 prostate cancer cells; test: Example T: sensitisation of PC-3 cells to doxorubicin, oxaliplatin, paclitaxel or vincristine, Wst1; type: cell-based, human; settings: PC-3 cells, 72 hours
[7] = test system: PC3 human prostate cancer cells; test: Example S: in vitro anticancer screen, PC-3 cells, Wst1; type: cell-based; settings: Homo sapiens, PC-3; 1.5 μM, approximately 20 hours, Wst1; read-out: PC-3, percent of cancer cell survival relative to vehicle treated cells
Outline: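 Values give percent survival relative to vehicle, read by Wst1 absorbance (450/630 nm) after 2 h dye incubation, in triplicate. Cells were seeded at 2×10^4/well and treated about 20 h with compound at 0.4, 0.5 or 2.5 μM, depending on compound.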

[8] = test system: 4T1 murine breast cancer cells; test: Example S: in vitro anticancer screen, 4T1 cells, Wst1; type: cell-based, mouse; settings: Mus musculus, 4T1, 18 h, 18 hr, Wst1
Outline: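 Read-out is Wst1 absorbance (450 nm, reference 630 nm) after roughly 2 hr dye incubation, giving percent cell survival versus vehicle. Before that, compounds at 1 μM or 5 μM were applied for 18 hr to 4T1 cells plated at 1×10^4 per well.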

[9] = test system: 4T1 mouse mammary breast cancer cells; test: Example O: syngeneic 4T1 breast cancer growth in Balb/C mice; type: in vivo; settings: 4T1 in female Balb/C mice
Experimental: Cancer models in mice generally either involve syngeneic murine tumors in immunocompetent mice or xenografts of human tumors in immunocompromised mice. […] Mice received test compounds by oral gavage in 1% hydroxypropylmethylcellulose from day 2 until day 30. Tumor growth was assessed by caliper measurements twice per week and tumor weight after necropsy, and body weight was also monitored. Treatment groups were: • 1. […] HPMC) • 2. CI (120 μmol/kg/day) • 3. BA (120 μmol/kg/day) • 4. CP (120 μmol/kg/day) • 5. CQ (120 μmol/kg/day) • 6. AA (120 μmol/kg/day) • 7. AC (120 μmol/kg/day)

IC50 ([1]; read-out: IC50 (concentration for 50% of inhibition)): 1.15 µM
MIC ([1]; read-out: MIC (concentration for maximum-99% of inhibition)): 40.8 µM (≈ 13.7 µg/mL)
MIC [2]: 18 µM (≈ 6.04 µg/mL)
MIC [5]: 33 µM (≈ 11.1 µg/mL)
IC50 [5]: 11 µM
SMILES: CCCCCCOc1ccc(CNc2ncnc3ccccc23)cc1 [AB, N-[4-(Hexyloxy)benzyl]quinazolin-4-amine]
Tumor Weight (g) Mean ± SEM [3]: 0.88 ± 0.33 g
Body Weight (g) Mean ± SEM Initial [3]: 26.2 ± 0.7 g
Complete Regressions [3]: 2
Viable cell percent change, Chronic/48-hour, Mean [4]: 56.56%

MIC [5]: 96.7 µM (≈ 35.3 µg/mL)
IC50 [5]: 34.6 µM
SMILES: CCCCCCOc1ccc(OCCNc2ccnc3ccccc23)cc1 [BA, N-{2-[4-(Hexyloxy)phenoxy]ethyl}quinolin-4-amine]
viability at 1.5 µM ([6]; Homo sapiens, compound 1.5 μM alone, Wst1, vehicle = 100, read-out: No Chemo: percent cell survival): 42.4%
Doxorubicin 3.5 μM: percent cell survival ([6]; compound 1.5 μM + doxorubicin 3.5 μM, chemotherapy agent alone normalized to 100%): 167.3%
Oxaliplatin 100 μM: percent cell survival ([6]; compound 1.5 μM + oxaliplatin 100 μM, chemotherapy agent alone normalized to 100%): 146.7%
Paclitaxel 50 μM: percent cell survival ([6]; compound 1.5 μM + paclitaxel 50 μM, chemotherapy agent alone normalized to 100%): 145.7%
Vincristine 100 nM: percent cell survival ([6]; compound 1.5 μM + vincristine 100 nM, chemotherapy agent alone normalized to 100%): 148.7%
viability at 1.5 µM [7]: 42.4%
viability at 1 µM ([8]; 1 μM, read-out: 4T1 1 μM, percent of cancer cell survival relative to vehicle treated cells): 71.7%
viability at 5 µM ([8]; 5 μM, read-out: 4T1 5 μM, percent of cancer cell survival relative to vehicle treated cells): 220%
Final Tumor Volume ([9]; 120 μmol/kg/day oral gavage, day 2 to day 30): 641 ± 159 mm^3
Δ BW % ([9]; 120 μmol/kg/day oral, final vs initial body weight): −2.7%
Final Body Weight ([9]; 120 μmol/kg/day oral, final, in g (unit assumed)): 24.8 ± 2.0
Initial Body Weight ([9]; 120 μmol/kg/day oral, initial (baseline)): 25.5 ± 1.5 g
Viable cell percent change, Chronic/48-hour, Mean [4]: 41.79%

SMILES: CNC(=O)c1cc(Oc2ccc(NC(=O)Nc3ccc(Cl)c(C(F)(F)F)c3)cc2)ccn1 [Sorafenib, sorafenib, reference compound]
Tumor Weight (g) Mean ± SEM [3]: 0.81 ± 0.20 g
Body Weight (g) Mean ± SEM Initial [3]: 25.9 ± 0.7 g
Complete Regressions [3]: 1
